This note sets out measurements from PubChem BioAssay AID1963826 (Molecular Pharmacology Branch, DTP, NCI, 2024).

Several values for one entry are separate records, joined by “and”; a condition that tells them apart may be missing. Identical values can stand only once.

For this test, the system named is 926638-142-R-J1-PDC complex spheroid viability. The experiment in a line: Anticancer human tumor 926638-142-R-J1-PDC patient-derived endometrial carcinoma cell line growth inhibition [POLQ]. Conditions: for viability, T/C: stronger effect = lower value. As to the method: Multicellular complex tumor spheroid response to Polymerase (POL) inhibitors (novobiocin, ART-558, RP6685) in combination with a variety of drugs and investigational agents in selected tumor cell lines
The POL inhibitors (novobiocin, ART-558, and RP6685) were evaluated both individually and in combination with standard of care and investigational anticancer small molecules within a complex spheroid model of solid tumors. . Complex spheroids include a stromal component modeled by human endothelial cells (HUVEC) and fibroblasts modeled by human mesenchymal stem cells (MSCs). The concentration ranges selected for each drug and investigational agent were based upon clinically achievable concentrations if the clinical Cmax of the agent was known.
Compounds. The drugs and investigational agents: novobiocin (NSC847541), ART-558 (NSC835418), RP-6685 (NSC848927), peposertib (NSC802822), ceralasertib (NSC780249), elimusertib (NSC800525), camonsertib (NSC841442), AZD-1390 (NSC803789), olaparib (NSC753686), talazoparib (NSC767125), rucaparib (NSC756644), sotorasib (NSC818433), MRTX-1133 (NSC836407), SN-38 (NSC673596), topotecan (NSC609699), epotoside (NSC141540), doxorubicin (NSC123127), gemcitabine (NSC613327), 5-fluorouracil (NSC19893), paclitaxel (NSC125973), vemurafenib (NSC761431), MSA-2 (NSC828583), SN-011 (NSC837082), adavosertib (NSC754352), prexasertib (NSC758257), carboplatin (NSC241240) and oxaliplatin (NSC266046), were obtained from the National Cancer Institute (NCI) Developmental Therapeutics Program Chemical Repository (21). The FDA-approved anticancer drug set is available from the Developmental Therapeutics Program at https://dtp.cancer.gov/organization/dscb/obtaining/. […] The stock solutions were prepared in dimethyl sulfoxide (DMSO, Sigma-Aldrich, St. Louis, MO, cat. D2650), except for the platinum compounds which were prepared in saline (Quality Biological, Gaithersburg, MD, cat. 114-055-101), at 800-fold the tested concentration and stored at -70 degrees C prior to their use. All drugs and investigational agents were tested over a range starting from a high concentration at or near the clinical Cmax and decreasing in half-log increments. If the clinical Cmax for an agent had not been determined, the highest concentration tested was 10 microM, except for SN-38, which was tested at a high concentration of 1 microM.
Cell Culture. All cells were maintained in an incubator at 37 degrees C and 5% CO2 with 95% humidity. The PDC lines were cultured according to standard operating procedures established by the NCI PDMR (https://pdmr.cancer.gov). Table 3 of the manuscript, lists the cell lines along with the number of the three cell types plated to form the mct-spheroids and media for tumor cell growth. After thawing, all PDC lines, except 997537-175-T-J1-PDC and 415267-285-R-J2-PDC, were cultured in Matrigel-coated flasks prepared with a working solution of 1X Ham's F-12 nutrient mix, without supplementation (Thermo Fisher Scientific, cat. 11765054), 100 U/mL penicillin-streptomycin (Thermo Fisher Scientific, cat. 15140122), and 2.5% Matrigel (Corning Inc., Corning, NY, cat. 354248) for the first three passages. The two PDC lines 997537-175-T-J1-PDC and 415267-285-R-J2-PDC were cultured on uncoated flasks. The 857933-349-R-J2-PDC line was cultured in 6C/Colon 1B media containing advanced DMEM/F-12 (Thermo Fisher Scientific, cat. 12634028), 10 mM HEPES (Thermo Fisher Scientific, cat. 15630080), 1X GlutaMAX supplement (Thermo Fisher Scientific, cat. 35050061), 0.1 mg/mL primocin (InvivoGen, San Diego, CA, cat. ant-pm-2), 10% defined fetal bovine serum, heat inactivated (HyClone Laboratories Inc., Logan, UT, cat. SH30070.03HI), 50% L-WRN conditioned media (ATCC, cat. CRL-3276), 1.25 mM N-Acetyl-L-cysteine (Sigma-Aldrich, cat. A9165), 10 mM nicotinamide (Sigma-Aldrich, cat. N0636), 1X B-27 supplement (Thermo Fisher Scientific, cat. 17504044), 1X N-2 supplement (Thermo Fisher Scientific, cat. […]
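Also: spheroids exposed to drugs for one week before readout.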
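For viability, T/C in this document: percent viability relative to DMSO vehicle control wells set as 100%.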

As usually defined, the viability, T/C is the ratio of treated to control. In general, IC50 refers to the concentration that gives 50% inhibition. In the case of `COC1C(OC(N)=O)C(O)C(Oc2ccc3c(O)c(NC(=O)c4ccc(O)c(CC=C(C)C)c4)c(=O)oc3c2C)OC1(C)C` (stereo not given), the viability, T/C is, setting by setting: (compound 0.316 µM) 101% [middle of 13 runs]; (compound 10 µM) 98.8% [middle of 13 runs]. Also, for the setting “compound alone, run of 01/08/2024”, the IC50 is above 10 µM.
In the case of `Nc1ccc(C#CCN(C(=O)Cc2ncc(C(F)(F)F)cc2C(F)(F)F)c2ccc(F)cc2)nn1`, the viability, T/C by setting is: (compound 0.0316 µM) 101% [middle of 13 runs]; (compound 0.1 µM) 101% [middle of 13 runs]; (compound 1 µM) 97.2% [middle of 13 runs]; (compound 10 µM) 99.8% [middle of 13 runs]. Moreover, where the note is “compound alone, run of 01/19/2024”, the IC50 is above 10 µM.
In the case of `C=CCn1c(=O)c2cnc(Nc3ccc(N4CCN(C)CC4)cc3)nc2n1-c1cccc(C(C)(C)O)n1` + COC1C(OC(N)=O)C(O)C(Oc2ccc3c(O)c(NC(=O)c4ccc(O)c(CC=C(C)C)c4)c(=O)oc3c2C)OC1(C)C, the IC50 is 0.494 µM (curve of first compound, second compound 0.0316 µM); 0.445 µM (curve of first compound, second compound 0.1 µM); 0.414 µM (curve of first compound, second compound 0.316 µM); 0.339 µM (curve of first compound, second compound 1 µM); 0.277 µM (curve of first compound, second compound 3.16 µM); 0.47 µM (curve of first compound, second compound 10 µM). In addition, the viability, T/C is, setting by setting: (second compound 0.0316 µM, first compound 0.00316 µM) 106%; (second compound 0.0316 µM, first compound 0.01 µM) 95.1%; (second compound 0.0316 µM, first compound 0.0316 µM) 93%; (second compound 0.0316 µM, first compound 0.1 µM) 85.3%; (second compound 0.0316 µM, first compound 0.316 µM) 54.1%; (second compound 0.0316 µM, first compound 1 µM) 41.6%. For the same compound, the viability, T/C runs as follows: (second compound 0.1 µM, first compound 0.00316 µM) 102%; (second compound 0.1 µM, first compound 0.01 µM) 105%; (second compound 0.1 µM, first compound 0.0316 µM) 90.7%; (second compound 0.1 µM, first compound 0.1 µM) 80%; (second compound 0.1 µM, first compound 0.316 µM) 57.7%; (second compound 0.1 µM, first compound 1 µM) 32.2%. Also, the viability, T/C (second compound 0.316 µM, first compound 0.00316 µM) was 88%; the viability, T/C (second compound 0.316 µM, first compound 0.01 µM) was 86.1%; the viability, T/C (second compound 0.316 µM, first compound 0.0316 µM) was 78.3%; the viability, T/C (second compound 0.316 µM, first compound 0.1 µM) was 87.4%; the viability, T/C (second compound 0.316 µM, first compound 0.316 µM) is 52.8%; the viability, T/C (second compound 0.316 µM, first compound 1 µM) is 40.7%. The viability, T/C was 84.4% (second compound 1 µM, first compound 0.00316 µM); 98.5% (second compound 1 µM, first compound 0.01 µM); 93.3% (second compound 1 µM, first compound 0.0316 µM); 85.2% (second compound 1 µM, first compound 0.1 µM); 50.9% (second compound 1 µM, first compound 0.316 µM); 37.1% (second compound 1 µM, first compound 1 µM). Besides, the viability, T/C (second compound 3.16 µM, first compound 0.00316 µM) was 93.6%; the viability, T/C (second compound 3.16 µM, first compound 0.01 µM) was 104%; the viability, T/C (second compound 3.16 µM, first compound 0.0316 µM) was 89.1%; the viability, T/C (second compound 3.16 µM, first compound 0.1 µM) is 70.9%; the viability, T/C (second compound 3.16 µM, first compound 0.316 µM) is 47.7%; the viability, T/C (second compound 3.16 µM, first compound 1 µM) was 37.7%. Moreover, the viability, T/C is, setting by setting: (second compound 10 µM, first compound 0.00316 µM) 98%; (second compound 10 µM, first compound 0.01 µM) 109%; (second compound 10 µM, first compound 0.0316 µM) 91.3%; (second compound 10 µM, first compound 0.1 µM) 80.5%; (second compound 10 µM, first compound 0.316 µM) 56.6%; (second compound 10 µM, first compound 1 µM) 37.6%.
`CC[C@@]1(O)C(=O)OCc2c1cc1n(c2=O)Cc2cc3c(CN(C)C)c(O)ccc3nc2-1`: the viability, T/C (compound 0.000316 µM) is 92.4% and 102% and 103%; the viability, T/C (compound 0.001 µM) was 87.4% and 90.6% and 84.2%; the viability, T/C (compound 0.00316 µM) is 86.8% and 84.1% and 78.3%; the viability, T/C (compound 0.01 µM) is 72.1% and 81.6% and 70.2%; the viability, T/C (compound 0.0316 µM) was 68.5% and 73.5% and 62%; the viability, T/C (compound 0.1 µM) is 43.1% and 49% and 41.8%. Also, the IC50 (curve of compound) was 0.0723 µM and > 0.1 µM and 0.0631 µM.
For the compound `CCc1cc2c(N3CCc4c(cc(Cn5ccnc5)cc4-c4cn(C)nc4C(F)(F)F)C3=O)cc(C)nc2c(OC)n1`, the viability, T/C by setting is: (compound 0.0316 µM) 76.6% and 76.9% and 72.4%; (compound 0.1 µM) 62.2% and 66.4% and 61.3%; (compound 0.316 µM) 52.8% and 62% and 51.8%; (compound 1 µM) 42% and 51.2% and 48.4%; (compound 3.16 µM) 26.5% and 38% and 43%; (compound 10 µM) 23.4% and 35.1% and 33.4%. In addition, under “curve of compound”, the IC50 was 0.373 µM and 0.987 µM and 0.595 µM.
On to `COc1cc2cc(C(=O)CCC(=O)O)sc2cc1OC`, for which the viability, T/C is, setting by setting: (compound 0.0316 µM) 90.1% and 110% and 93.5%; (compound 0.1 µM) 89.8% and 92.9% and 113%; (compound 0.316 µM) 98.2% and 105% and 100%; (compound 1 µM) 101% and 109% and 93.2%; (compound 3.16 µM) 99.7% and 107% and 75.5%; (compound 10 µM) 90.7% and 92.1% and 93.5%. In addition, the IC50 (curve of compound) is above 10 µM.
For `COc1cccc2c1C(=O)c1c(O)c3c(c(O)c1C2=O)CC(O)(C(=O)CO)CC3OC1CC(N)C(O)C(C)O1` (stereo not given), the viability, T/C is 77.2% and 83% and 80.9% (compound 0.0316 µM); 57.6% and 62.2% and 59.7% (compound 0.1 µM); 17.8% and 23.1% and 18.7% (compound 0.316 µM); 3.79% and 5.62% and 2.27% (compound 1 µM); 0.22% and 0.29% and 0.23% (compound 3.16 µM); 0.25% and 0.29% and 0.23% (compound 10 µM). Further, the 50% inhibitory concentration (IC50) (curve of compound) is 0.124 µM and 0.143 µM and 0.131 µM.
As for `C=CC(=O)N1CCN(c2nc(=O)n(-c3c(C)ccnc3C(C)C)c3nc(-c4c(O)cccc4F)c(F)cc23)C(C)C1` (stereo not given), the viability, T/C was 73.8% and 100% and 104% (compound 0.0316 µM); 88.7% and 83.5% and 89.7% (compound 0.1 µM); 75.7% and 108% and 103% (compound 0.316 µM); 82.7% and 84.2% and 86.3% (compound 1 µM); 72.6% and 88% and 81% (compound 3.16 µM); 58.7% and 55% and 55.7% (compound 10 µM). Also, the IC50 (curve of compound) is above 10 µM.
